Results: ChEMBL document CHEMBL1938228, “Design and synthesis of potent carboxylic acid DGAT1 inhibitors with high cell permeability” (Bioorg Med Chem Lett, 2012)

How the values were obtained:
[1] = Aqueous solubility of the compound; assay type: physicochemical
[2] = Lipophilicity, log D of the compound; assay type: physicochemical; conditions: octanol/water
Salmonella typhimurium = experiment: Induction of mutagenesis in Salmonella Typhimurium TA98 assessed as increase in mutation frequency in presence of liver S9 fraction relative to untreated control; assay type: toxicity, organism-based; conditions: salmonella enterica subsp. enterica serovar typhimurium

| solubility [1] | logD [2] | Structure (SMILES) | fold change (FC) (Salmonella typhimurium) |
| --- | --- | --- | --- |
| > 1000 µg/mL | -0.53 | CC(Sc1nnc(-c2ccc(NC(=O)c3ccccc3)cc2)n1C)C(=O)O (racemic) |  |
|  |  | CC(C)(COc1ccc(-c2ccc(N)cc2)cn1)C(=O)O | 2.6 |
|  |  | CC(C)(COc1ccc(-c2ccc(N)cc2)cc1)C(=O)O | 24 |
